From ChEMBL document CHEMBL4715814, “Design, synthesis and biological activity evaluation of novel 4-subtituted 2-naphthamide derivatives as AcrB inhibitors” (2018)
Calls of active or inactive are those of the source. The rule behind the calls is not given here.

What was measured:
Escherichia coli [1] = assay: Potentiation of chloramphenicol-induced antibacterial activity against wild type Escherichia coli BW25113 assessed as fold reduction in chloramphenicol MIC at 128 ug/ml incubated for 18 hrs under aerobic condition by checkerboard titration assay relative to chloramphenicol MIC alone; assay type: functional; details: dose 128 µg/ml
Escherichia coli [2] = assay: Potentiation of chloramphenicol-induced antibacterial activity against wild type Escherichia coli BW25113 assessed as fold reduction in chloramphenicol MIC at 256 ug/ml incubated for 18 hrs under aerobic condition by checkerboard titration assay relative to chloramphenicol MIC alone; assay type: functional; details: dose 256 µg/ml
Escherichia coli [3] = assay: (§1) Antibacterial activity against Wild type Escherichia coli BW25113 assessed as inhibition of AcrB efflux pump by mesuring the glucose-induced nile red efflux at 200 uM preincubated with CCCP for 15 mins followed by compound addition after 15 mins nile red added and incubated for 3 hrs in shaker by fluorimetric analysis; assay type: functional, organism-based; details: time 195.0 min
Cell membrane [4] = assay: Induction of outer membrane permeabilization in wild type Escherichia coli BW25113 assessed as increase in nitrocefin hydrolysis at 512 ug/ml measured for 30 mins in presence of CCCP by spectrophotometry analysis; assay type: subcellular; details: dose 512.0 µg/ml
Escherichia coli [5] = assay: Potentiation of TPP-induced antibacterial activity against AcrB deficient Escherichia coli BW25113 assessed as TPP MIC at 128 ug/ml incubated for 18 hrs under aerobic condition by checkerboard titration assay (reference value: 256 ug/ml); assay type: functional; details: dose 128 µg/ml
Escherichia coli [6] = assay: Potentiation of chloramphenicol-induced antibacterial activity against AcrB deficient Escherichia coli BW25113 assessed as chloramphenicol MIC at 128 ug/ml incubated for 18 hrs under aerobic condition by checkerboard titration assay (reference value: 2 ug/ml); assay type: functional; details: dose 128 µg/ml
Escherichia coli [7] = assay: Potentiation of erythromycin-induced antibacterial activity against AcrB deficient Escherichia coli BW25113 assessed as erythromycin MIC at 128 ug/ml incubated for 18 hrs under aerobic condition by checkerboard titration assay (reference value: 32 ug/ml); assay type: functional; details: dose 128 µg/ml
Escherichia coli [8] = assay: Potentiation of TPP-induced antibacterial activity against wild type Escherichia coli BW25113 assessed as TPP MIC at 128 ug/ml incubated for 18 hrs under aerobic condition by checkerboard titration assay (reference value: 1024 ug/ml); assay type: functional; details: dose 128 µg/ml
Escherichia coli [9] = assay: Potentiation of chloramphenicol-induced antibacterial activity against wild type Escherichia coli BW25113 assessed as chloramphenicol MIC at 128 ug/ml incubated for 18 hrs under aerobic condition by checkerboard titration assay (reference value: 16 ug/ml); assay type: functional; details: dose 128 µg/ml
Escherichia coli [10] = assay: Potentiation of rifampicin-induced antibacterial activity against wild type Escherichia coli BW25113 assessed as rifampicin MIC at 128 ug/ml incubated for 18 hrs under aerobic condition by checkerboard titration assay (reference value: 16 ug/ml); assay type: functional; details: dose 128 µg/ml
Cell membrane [11] = assay: Disruption of inner membrane potential in wild type Escherichia coli BW25113 at 512 ug/ml preincubated for 10 mins followed by glucose stimulation and CCCP addition by DiOC2 probe based fluorimetric analysis; assay type: subcellular; details: dose 512.0 µg/ml
Escherichia coli [12] = assay: Potentiation of erythromycin-induced antibacterial activity against wild type Escherichia coli BW25113 assessed as erythromycin MIC at 128 ug/ml incubated for 18 hrs under aerobic condition by checkerboard titration assay (reference value: 128 ug/ml); assay type: functional; details: dose 128 µg/ml
Escherichia coli [13] = assay: Potentiation of erythromycin-induced antibacterial activity against wild type Escherichia coli BW25113 assessed as fold reduction in erythromycin MIC at 128 ug/ml incubated for 18 hrs under aerobic condition by checkerboard titration assay relative to erythromycin MIC alone; assay type: functional; details: dose 128 µg/ml
Escherichia coli [14] = assay: as §1, with “500” for “200”; assay type: functional, organism-based; details: time 195.0 min
Escherichia coli [15] = assay: Potentiation of chloramphenicol-induced antibacterial activity against AcrB deficient Escherichia coli BW25113 assessed as chloramphenicol MIC at 256 ug/ml incubated for 18 hrs under aerobic condition by checkerboard titration assay (reference value: 2 ug/ml); assay type: functional; details: dose 256 µg/ml
Escherichia coli [16] = assay: Potentiation of TPP-induced antibacterial activity against AcrB deficient Escherichia coli BW25113 assessed as TPP MIC at 256 ug/ml incubated for 18 hrs under aerobic condition by checkerboard titration assay (reference value: 256 ug/ml); assay type: functional; details: dose 256 µg/ml
Escherichia coli [17] = assay: Potentiation of erythromycin-induced antibacterial activity against AcrB deficient Escherichia coli BW25113 assessed as erythromycin MIC at 256 ug/ml incubated for 18 hrs under aerobic condition by checkerboard titration assay (reference value: 32 ug/ml); assay type: functional; details: dose 256 µg/ml
Escherichia coli [18] = assay: Potentiation of TPP-induced antibacterial activity against wild type Escherichia coli BW25113 assessed as TPP MIC at 256 ug/ml incubated for 18 hrs under aerobic condition by checkerboard titration assay (reference value: 1024 ug/ml); assay type: functional; details: dose 256 µg/ml
Escherichia coli [19] = assay: Potentiation of chloramphenicol-induced antibacterial activity against wild type Escherichia coli BW25113 assessed as chloramphenicol MIC at 256 ug/ml incubated for 18 hrs under aerobic condition by checkerboard titration assay (reference value: 16 ug/ml); assay type: functional; details: dose 256 µg/ml
Escherichia coli [20] = assay: Potentiation of rifampicin-induced antibacterial activity against wild type Escherichia coli BW25113 assessed as rifampicin MIC at 256 ug/ml incubated for 18 hrs under aerobic condition by checkerboard titration assay (reference value: 16 ug/ml); assay type: functional; details: dose 256 µg/ml
Escherichia coli [21] = assay: Potentiation of erythromycin-induced antibacterial activity against wild type Escherichia coli BW25113 assessed as erythromycin MIC at 256 ug/ml incubated for 18 hrs under aerobic condition by checkerboard titration assay (reference value: 128 ug/ml); assay type: functional; details: dose 256 µg/ml
Escherichia coli [22] = assay: Potentiation of TPP-induced antibacterial activity against AcrB deficient Escherichia coli BW25113 assessed as TPP MIC at 512 ug/ml incubated for 18 hrs under aerobic condition by checkerboard titration assay (reference value: 256 ug/ml); assay type: functional; details: dose 512 µg/ml
Escherichia coli [23] = assay: Potentiation of erythromycin-induced antibacterial activity against AcrB deficient Escherichia coli BW25113 assessed as erythromycin MIC at 512 ug/ml incubated for 18 hrs under aerobic condition by checkerboard titration assay (reference value: 32 ug/ml); assay type: functional; details: dose 512 µg/ml
Escherichia coli [24] = assay: Potentiation of TPP-induced antibacterial activity against wild type Escherichia coli BW25113 assessed as TPP MIC at 512 ug/ml incubated for 18 hrs under aerobic condition by checkerboard titration assay (reference value: 1024 ug/ml); assay type: functional; details: dose 512 µg/ml
Escherichia coli [25] = assay: Potentiation of chloramphenicol-induced antibacterial activity against wild type Escherichia coli BW25113 assessed as chloramphenicol MIC at 512 ug/ml incubated for 18 hrs under aerobic condition by checkerboard titration assay (reference value: 16 ug/ml); assay type: functional; details: dose 512 µg/ml
Escherichia coli [26] = assay: Potentiation of erythromycin-induced antibacterial activity against wild type Escherichia coli BW25113 assessed as erythromycin MIC at 512 ug/ml incubated for 18 hrs under aerobic condition by checkerboard titration assay (reference value: 128 ug/ml); assay type: functional; details: dose 512 µg/ml
Escherichia coli [27] = assay: as §1, with “100” for “200”; assay type: functional, organism-based; details: time 195.0 min

Row | SMILES | Activity (Cell membrane [4]) | MIC (Escherichia coli [8]) | MIC (Escherichia coli [9]) | MIC (Escherichia coli [10]) | Activity (Cell membrane [11]) | MIC (Escherichia coli [12]) | MIC (Escherichia coli [15]) | MIC (Escherichia coli [16]) | MIC (Escherichia coli [17]) | MIC (Escherichia coli [18]) | MIC (Escherichia coli [19]) | MIC (Escherichia coli [20]) | MIC (Escherichia coli [21]) | fold change (FC) (Escherichia coli [2]) | Activity (Escherichia coli [14]) | further results
1 | COc1ccc(CNC(=O)c2cc(OCCC(C)C)c3ccccc3c2)cc1 | – | 1020 µg/mL | 16 µg/mL | 16 µg/mL | – | 64 µg/mL | 2 µg/mL | 256 µg/mL | 32 µg/mL | 1020 µg/mL | 16 µg/mL | 16 µg/mL | 32 µg/mL | – | inactive | –
2 | O=C(NCc1ccccc1)c1cc(OCc2ccccc2)c2ccccc2c1 | – | – | – | – | – | – | – | – | – | 1020 µg/mL | 16 µg/mL | 16 µg/mL | 128 µg/mL | – | – | MIC (Escherichia coli [22]): 256 µg/mL; MIC (Escherichia coli [23]): 32 µg/mL; MIC (Escherichia coli [24]): 1020 µg/mL; MIC (Escherichia coli [25]): 16 µg/mL; MIC (Escherichia coli [26]): 64 µg/mL
3 | O=C(NCc1ccco1)c1cc(OCc2ccccc2)c2ccccc2c1 | inactive | 1020 µg/mL | 16 µg/mL | 16 µg/mL | Active | 128 µg/mL | 2 µg/mL | – | – | 256 µg/mL | 2 µg/mL | 4 µg/mL | 128 µg/mL | 8 | – | Activity (Escherichia coli [27]): Active
4 | C#CCNC(=O)c1cc(OCCC(C)C)c2ccccc2c1 | – | 1020 µg/mL | 8 µg/mL | 16 µg/mL | Active | 128 µg/mL | 2 µg/mL | 256 µg/mL | 32 µg/mL | 256 µg/mL | 2 µg/mL | 16 µg/mL | 128 µg/mL | 8 | inactive | MIC (Escherichia coli [5]): 256 µg/mL; MIC (Escherichia coli [6]): 2 µg/mL; MIC (Escherichia coli [7]): 32 µg/mL

Continued by falling MIC (Escherichia coli [8]), values first:

Row | Activity (Cell membrane [4]) | MIC (Escherichia coli [8]) | MIC (Escherichia coli [9]) | MIC (Escherichia coli [10]) | Activity (Cell membrane [11]) | MIC (Escherichia coli [12]) | MIC (Escherichia coli [15]) | MIC (Escherichia coli [16]) | MIC (Escherichia coli [17]) | MIC (Escherichia coli [18]) | MIC (Escherichia coli [19]) | MIC (Escherichia coli [20]) | MIC (Escherichia coli [21]) | SMILES | fold change (FC) (Escherichia coli [2]) | Activity (Escherichia coli [14]) | further results
5 | inactive | 1020 µg/mL | 2 µg/mL | 16 µg/mL | inactive | 16 µg/mL | – | – | – | – | – | – | – | CC(C)CCOc1cc(C(=O)NC2CCCCC2)cc2ccccc12 | 8 | – | fold change (FC) (Escherichia coli [1]): 8; Activity (Escherichia coli [3]): Active; MIC (Escherichia coli [5]): 256 µg/mL; MIC (Escherichia coli [6]): 2 µg/mL; MIC (Escherichia coli [7]): 32 µg/mL; fold change (FC) (Escherichia coli [13]): 8
6 | inactive | 1020 µg/mL | 4 µg/mL | 16 µg/mL | Active | 128 µg/mL | 2 µg/mL | 256 µg/mL | 32 µg/mL | 1020 µg/mL | 2 µg/mL | 16 µg/mL | 128 µg/mL | CC(C)CCOc1cc(C(=O)NCc2ccccc2Cl)cc2ccccc12 | 8 | Active | fold change (FC) (Escherichia coli [1]): 4; fold change (FC) (Escherichia coli [13]): 4
7 | inactive | 1020 µg/mL | 16 µg/mL | 16 µg/mL | inactive | 128 µg/mL | 2 µg/mL | 256 µg/mL | 32 µg/mL | 256 µg/mL | 16 µg/mL | 16 µg/mL | 128 µg/mL | NC(=O)c1cc(OCCSc2nc3ccccc3[nH]2)c2ccccc2c1 | – | Active | –
8 | inactive | 1020 µg/mL | 8 µg/mL | 16 µg/mL | inactive | 128 µg/mL | 2 µg/mL | 256 µg/mL | 32 µg/mL | 512 µg/mL | 2 µg/mL | 16 µg/mL | 128 µg/mL | NC(=O)c1cc(OCCN2CCN(c3ccccc3)CC2)c2ccccc2c1 | 8 | – | Activity (Escherichia coli [3]): Active
